Data from US8030354B2, “Substituted biphenyl GPR40 modulators” (Amgen Inc., priority 2007, dated 2011).

Assays:
GPR40 [1] = molecular target: T1, GPR40 (Homo sapiens, UniProt O14842); assay: Inositol phosphate accumulation assay (A9_GPR40 cells); type: cell-based; set-up: expressed in transfected cells; host or cells: CHO cells stably transfected with GPR40 and aequorin
Procedure, shortened: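 A9 cells stably expressing GPR40 were labelled 16 h with 1 μCi/mL ^3H-inositol in inositol-free DMEM with dialysed FBS. Compounds in HBSS/10 mM LiCl with HSA were applied for 1 h at 37° C, then quenched with 20 mM formic acid. Accumulated [^3H] inositol phosphates were counted by SPA.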

[2] = test system: fetal rat intestinal cells isolated from E19 rat embryos; assay: GLP-1 secretion into culture medium from fetal rat intestinal cells; type: cell-based; details: FIG. 5-7; cultured cells treated with serial dilutions of compound
Experimental: (§1) FIG. 5 is a graph showing the concentration of GLP-1 secreted into culture medium as a function of the amount of Example compounds 14 and 69.8. The GLP-1 was secreted from fetal rat intestinal cells isolated from E19 rat embryos. The cultured cells were treated with serial dilutions of the indicated compounds, and GLP-1 secreted into the culture medium was determined.
as §1, with “6” for “5”, “compound 66.6.” for “compounds 14 and 69.8.”, “compound,” for “compounds,”
as §1, with “7” for “5”, “14, 66.17, 77.3,” for “14”, “83.1.” for “69.8.”

GPR40 [3] = molecular target: T1, GPR40; assay: Cell-based aequorin assay (CHO cells stably expressing GPR40 and aequorin); set-up: expressed in transfected cells; host or cells: CHO cells stably transfected with GPR40 and aequorin
Procedure, shortened: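 CHO cells stably co-expressing GPR40 and aequorin, loaded with coelenterazine (1 ug/mL, 2 h, room temperature) in H/HBSS with 20 mM Hepes and 0.01% fatty acid-free HSA. Serially diluted compounds added; luminescence recorded over 20 s. EC50 from dose-response of maximum relative light units.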

GPR40 [4] = molecular target: T1, GPR40; assay: Competition binding assay on A9 membranes expressing GPR40 with [3H] labeled Comparative Compound 1; set-up: expressed in transfected cells; host or cells: membranes of A9 cells expressing GPR40; details: 5 nM radioligand, 4 hours, room temperature
Experimental: Competition binding assays were performed on A9 membranes expressing GPR40.

GPR40 [5] = molecular target: T1, GPR40; assay: Inositol phosphate accumulation in response to compounds; type: cell-based; set-up: expressed in transfected cells; details: FIG. 3; as a function of concentration; compared with Comparative Compound 1
Description: FIG. 3 is a graph showing inositol phosphate accumulation in response to various compounds as a function of concentration.

GPR40 [6] = molecular target: T1, GPR40; assay: Aequorin luminescence in response to compounds; type: cell-based; set-up: expressed in transfected cells; details: FIG. 2; as a function of concentration; compared with fatty acid ligands
Description: FIG. 2 is a graph showing Aequorin luminescence in response to various compounds as a function of concentration.

GPR40 [7] = molecular target: T1, GPR40; assay: Displacement of 3H-labeled Comparative Compound 1 by unlabeled compounds; type: binding; set-up: expressed in transfected cells; host or cells: membranes of A9 cells expressing GPR40; details: FIG. 1

T1 sequence (O14842 whole entry): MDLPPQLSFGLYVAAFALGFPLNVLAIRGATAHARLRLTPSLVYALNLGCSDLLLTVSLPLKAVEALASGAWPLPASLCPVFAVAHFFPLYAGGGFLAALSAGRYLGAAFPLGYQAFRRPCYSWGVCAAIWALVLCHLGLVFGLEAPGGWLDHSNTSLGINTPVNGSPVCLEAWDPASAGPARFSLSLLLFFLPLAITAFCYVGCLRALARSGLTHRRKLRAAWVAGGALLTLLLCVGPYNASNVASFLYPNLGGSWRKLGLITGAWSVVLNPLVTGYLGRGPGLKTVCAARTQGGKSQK

COc1ccc(F)c(-c2ccc(COc3cccc([C@@H](CC(=O)O)C4CC4)c3)cc2C2=CCCC2(C)C)c1 (single isomer, unassigned) [Example 14, (3S)-3-Cyclopropyl-3-(3-(((2-(5,5-dimethyl-1-cyclopenten-1-yl)-2′-fluoro-5′-(methyloxy)-1,1′-biphenyl-4-yl)methyl)oxy)phenyl)propanoic acid or (3R)-3-cyclopropyl-3-(3-(((2-(5,5-dimethyl-1-cyclopenten-1-yl)-2′-fluoro-5′-(methyloxy)-1,1′-biphenyl-4-yl)methyl)oxy)phenyl)propanoic acid]
agonist type in inositol phosphate accumulation assay (GPR40 [1]; [3H] inositol accumulation after 1 hour, FIG. 3): potent full agonists | EC50 (GPR40 [1]; inositol phosphate assay, A9_GPR40 cells, 1 hour, read-out: IP3 EC50): 10 to 100 nM | concentration of GLP-1 secreted into culture medium [2]: significantly stimulated GLP-1 secretion | EC50 (GPR40 [3]; activation of human GPR40, CHO cells, 0.01% HSA): 100 to 1000 nM | agonist type in aequorin assay (GPR40 [3]; compared with α-linolenic acid and docosahexaenoic acid, FIG. 2): potent full agonists | displacement of bound [3H] labeled Comparative Compound 1 (GPR40 [4]): did not displace | effect on binding of the radioligand (Comparative Compound 1) to the receptor (GPR40 [4]): enhanced the binding of the radioligand | inositol phosphate accumulation (GPR40 [5]): greater than Comparative Compound 1 | Aequorin luminescence (GPR40 [6]): equivalent to naturally occurring fatty acid ligands | displacement of 3H-labeled Comparative Compound 1 / total binding of 3H-labeled Comparative Compound 1 (GPR40 [7]): enhanced the total binding
